In the AptaBench aptamer set (doi:10.1093/nar/gkaf219):
pKd: −log10 of the molar value.

Key:
Settings in all cases: 10 mM Tris-HCl, pH 7.4
[1] = system: DNA aptamer or structured DNA GGGACGACGCACTATGGCTAGGGTTGGTACGGTCGTGAACCGCGGGGTGTCGTCCC
[2] = system: DNA aptamer or structured DNA CTTACGACAGGTTCTGAGGAATCAACGTCGGTGTAGTTGTCGTAAG
[3] = system: DNA aptamer or structured DNA CTTACGACTTACTTTTGGGTTGTCTGGGTGGGAGGTATGTCGTAAG
[4] = system: DNA aptamer or structured DNA CTTACGACAAGGGATGTTTGTTAGTGTGTCGGTGCATTGTCGTAAG
[5] = system: DNA aptamer or structured DNA TTCAAATCTGCGGCGACTAATTCTTAGTGGTGGTTGCAATGCGCTGGGATGAGTCTAGATTTGAA
[6] = system: DNA aptamer or structured DNA TTCAAATCTGGTGCCCTTTCGCAGTCGGTTGGTAATGAGACCACTTTAGAGTCTAGATTTGAA
[7] = system: DNA aptamer or structured DNA GGGACGACGCGTACCATGGGTAGTTGCACGTCGTCCAAGTCGTCCC
[8] = system: DNA aptamer or structured DNA GGGACGACGCCGGCTTCTAGGGGGGGTGTGGGTGGCGAGTCGTCCC
[9] = system: DNA aptamer or structured DNA GGGACGACGCCGGCTTTTAGGGGGGGTGTGGGTGGCGAGTCGTCCC
[10] = system: DNA aptamer or structured DNA GGGACGACATGCGTCGAAAAGACCCCTGAGGGCAGCTGGTCGTCCC
[11] = system: DNA aptamer or structured DNA GGGACGACGGCACGGGGTTATTCGTTGGTTGCACTGCGCTGGGAGGCAGTCGTCCC
[12] = system: DNA aptamer or structured DNA GGGACGACTAGCCCGGCGTTGTTCGAGTGCAGCGAGTAGTCGTCCC
[13] = system: DNA aptamer or structured DNA CTTACGACCAGGCCTACGGAAGCAGCGTCAGCGGGGGGGTCGTAAG
[14] = system: DNA aptamer or structured DNA GGGACGACTAGCCGTGGCGTTGTTCGAGTGCAGCGAGTAGTCGTCCC
[15] = system: DNA aptamer or structured DNA CTTACGACCATGGGTGTTTGCACTAAGTCCGGTTCTTGGTCGTAAG
[16] = system: DNA aptamer or structured DNA GGGACGACCGGCTGTCTGGATGCATTGCGCCGGGAACTCGGACGGATGGTCGTCCC
[17] = system: DNA aptamer or structured DNA GGGACGACTAGTGCCTTCGCGCTGTGCGGGAATCCGGTTCTGTCGTCCC
[18] = system: DNA aptamer or structured DNA GGGACGACTAATGGGAGCATTGGTCCACGCAGTGTGCAGTCGTCCC
[19] = system: DNA aptamer or structured DNA CTTACGACTAGGTGTGGGTCGGCGCTAGGGGCAGGGTAGTCGTAAG
[20] = system: DNA aptamer or structured DNA GGGACGACGCGTAGGTCTCCTAGCTGTGCGTCGTTCAAGTCGTCCC
[21] = system: DNA aptamer or structured DNA GGGACGACGGCACGAGGTAATTCGTTGGTTGCACTGCGCTGGGAGGCAGTCGTCCC
[22] = system: DNA aptamer or structured DNA GGGACGACGGTACCCGCCGGTGCAGGATCTGGGGTGGTGTCGTCCC
[23] = system: DNA aptamer or structured DNA GGGACGACGGGGGGCTTTAGGGTGTAGGAGTGGGGTGAGTCGTCCC
[24] = system: DNA aptamer or structured DNA TTCAAATCTAGCGCAGGTAGGGGTGTAGGCGTGGGGGTAAGTCTAGATTTGAA
[25] = system: DNA aptamer or structured DNA TTCAAATCTTGCGAATTGGACTCAGAATGTGGGTTTGCCAGTCTAGATTTGAA
[26] = system: DNA aptamer or structured DNA GGGACGACGGCACGAGGTTATTCGTTGGTTGCACTGCGCTGGGAGGAAGTCGTCCC
[27] = system: DNA aptamer or structured DNA GGGACGACGCGTAGGTTCCCTAGCTGTGCGTCGTTCAAGTCGTCCC
[28] = system: DNA aptamer or structured DNA GGGACGACCCGTAGGGGTACACGCTCTATAGGGGCTGGGTCGTCCC
[29] = system: DNA aptamer or structured DNA CTTACGACTAGGTGGGGGTCGGCGCCGTAGGTGGGGTAGTCGTAAG
[30] = system: DNA aptamer or structured DNA GGGACGACGGGGATTCGCGGATTCATGGAAAAGGGCTCGTCTGTCGTCCC
[31] = system: DNA aptamer or structured DNA CTTACGACTAGTTCTGAGGAATCAACGTCGGTGTAGTTGTCGTAAG
[32] = system: DNA aptamer or structured DNA GGGACGACTGCTTGGGTAGGTCGGGTTTGGGTGCGGCGGTCGTCCC
[33] = system: DNA aptamer or structured DNA GGGACGACTAGCCGCGCGTTGTCCGACCCTTGGAAGTAGTCGTCCC
[34] = system: DNA aptamer or structured DNA GGGACGACGGGAAGGTTGGCAGCGCATCGTCGGGTCACGTCGTCCC
[35] = system: DNA aptamer or structured DNA GGGACGACAAGTACCAAGGGTAGCTCTGCGTTGTTCGAGGTCGTCCC
For binding call in this document: call rule not given here.

binding call [31]	binding call [17]	SMILES	binding call [1]	binding call [2]	binding call [3]	binding call [4]	binding call [7]	binding call [8]	binding call [9]	binding call [10]	binding call [12]	binding call [13]	binding call [14]	binding call [15]	binding call [18]	binding call [19]	binding call [20]	binding call [23]	binding call [24]	binding call [25]	further results
		CCCC(C(=O)c1ccc2c(c1)OCO2)N1CCCC1 (stereo not given)	no binding	no binding	no binding	no binding															binding call [5]: no binding
		CN[C@@H](C)Cc1ccccc1		no binding	no binding		no binding	no binding	no binding	no binding	no binding	binds	no binding	no binding	no binding	no binding	no binding	no binding	no binding	no binding	pKd [1]: 4.91; pKd [6]: 5.35; pKd [11]: 5.28; pKd [16]: 5.05; pKd [17]: 5.12; pKd [21]: 5.16; pKd [22]: 4.74; pKd [26]: 5.48; binding call [27]: no binding; binding call [28]: no binding; pKd [5]: 5.25
no binding	no binding	NCCc1ccc(O)c(O)c1	binds	no binding	no binding	binds										no binding					binding call [6]: binds; binding call [29]: binds; binding call [30]: no binding; binding call [11]: no binding; binding call [16]: binds; binding call [21]: binds; binding call [26]: no binding
		OC[C@@H](O)[C@@H](O)[C@H](O)[C@H](O)CO				no binding				no binding		no binding				no binding	no binding				binding call [28]: no binding
	no binding	CCN(CC)CC(=O)Nc1c(C)cccc1C	no binding		no binding		no binding	no binding			no binding			no binding	no binding		no binding		no binding	no binding	binding call [33]: no binding; binding call [34]: no binding
		CC(=O)Oc1ccc2c3c1O[C@H]1[C@@H](OC(C)=O)C=C[C@H]4[C@@H](C2)N(C)CC[C@@]341			no binding			no binding	no binding			no binding		no binding				no binding			binding call [29]: no binding; pKd [7]: 5.25; pKd [33]: 5.51; pKd [10]: 5.95; pKd [12]: 5.62; pKd [14]: 5.68; pKd [35]: 5.66; pKd [20]: 5.36; pKd [34]: 5.62; pKd [27]: 5.47
no binding	no binding	CCN(CC)CCOC(=O)c1ccc(N)cc1		no binding		no binding		no binding	no binding			no binding			no binding			no binding	no binding	no binding	binding call [6]: no binding; binding call [32]: binds; binding call [30]: no binding; binding call [22]: binds; binding call [34]: no binding
		O=C1CC[C@@]2(O)[C@H]3Cc4ccc(O)c5c4[C@@]2(CCN3CC2CC2)[C@H]1O5					no binding			no binding	no binding		no binding		no binding		no binding				binding call [33]: no binding; binding call [32]: no binding; binding call [30]: no binding; binding call [35]: no binding; binding call [34]: no binding; binding call [28]: no binding
no binding		c1ccc([C@H]2CN3CCSC3=N2)cc1		no binding			no binding			no binding	no binding		no binding			no binding	no binding				binding call [33]: no binding; binding call [35]: no binding; binding call [27]: binds; binding call [28]: no binding

SMILES	binding call [31]	binding call [17]	binding call [1]	binding call [2]	binding call [3]	binding call [4]	binding call [7]	binding call [8]	binding call [9]	binding call [10]	binding call [12]	binding call [13]	binding call [14]	binding call [15]	binding call [18]	binding call [19]	binding call [20]	binding call [23]	binding call [24]	binding call [25]	further results
COC(=O)[C@@H]1C2CCC(C[C@@H]1OC(=O)c1ccccc1)N2C (stereo not given in full)		no binding						no binding	no binding				no binding	no binding	no binding		no binding	no binding		no binding	pKd [29]: 6.33; binding call [32]: no binding; pKd [2]: 7.66; pKd [3]: 6.60; pKd [31]: 7.48; pKd [4]: 6.45; pKd [19]: 6.50; binding call [22]: no binding
CN1C2CCC1[C@@H](C(=O)O)[C@@H](OC(=O)c1ccccc1)C2 (stereo not given in full)	no binding			binds	no binding	no binding										no binding					binding call [29]: no binding
NCCc1c[nH]c2ccc(O)cc12	no binding	binds	no binding	no binding	no binding	no binding		no binding	no binding							binds		no binding	no binding		binding call [29]: no binding; binding call [30]: no binding; binding call [16]: no binding; binding call [22]: no binding; binding call [5]: no binding
